Results: patent US20040092524A1, “Novel aminophenyl piperazine or aminophenyl piperidine derivatives inhibiting prenyl transferase proteins and method for preparing same” (priority 2000, published 2004)

Experiments:
[1] = target: T1, protein farnesyl transferase (Bos taurus, UniProt P29702+P49355); assay: Inhibition of protein farnesyl transferase (dansyl-GCVLS fluorescence); assay type: biochemical; conditions: enzyme partially purified from bovine brain; 2 μM FPP, 2 μM dansyl GCVLS, 10 minutes at 37° C.; read-out: IC50 (PFTase)
T1 construct: partially purified from bovine brain by ion-exchange chromatography; from tissue; host or cells: bovine brain
Protocol: A) Evaluation of the Inhibition of Protein Famesyl Transferase:
The famesylation of the dansylated peptide GCVLS, catalyzed with the enzyme protein famesyl transferase results in a change in the emission spectrum of the dansyl group, and especially an increase in the emission at 505 nm when the molecule is excited at 340 nm. When measured using the spectrofluorimeter, this emission is proportional to the activity of the enzyme (Pompliano et al., J. Am. Chem. Soc. 1992; 114: 7945-7946).
55 mM TRIS/HCl pH 7.5; 5.5 mM DTT; 5.5 mM MgCl2; 110 μM ZnCl2, 0.22% B-octyl-B D-glucopyrannoside.
Farnesyl pyrophosphate (FPP), (Sigma)
Dansylated peptide dansyl-GCVLS (Neosystem/Strasbourg, France)
The protein farnesyl transferase is partially purified from bovine brain by ion-exchange chromatography on Q-sepharose (Pharmacia) (Moores et al., J. Biol. Chem. 1991, 266: 14603-14610, Reiss et al., Cell 1990, 62: 81-88).
The reaction mixture containing 2 μM of FPP, 2 μM of dansyl GCVLS with or without (zero) the amount of enzyme giving an intensity of 100 on the spectrofluorimeter after incubation for 10 minutes at 37° C., is prepared on ice.
In an Eppendorf tube, 360 μL of reaction mixture are mixed with 40 μl of 10× concentrated test product or of solvent, and incubated for 10 minutes at 37° C. The reaction is quenched on ice and the fluorescence intensity is measured (excitation at 340 nm, 4 nm slit, emission at 505 nm, 10 nm slit). The tests are performed in duplicate. The results are expressed as a percentage of inhibition. Under these conditions, the derivatives of the present invention were identified as powerful inhibitors of protein farnesyl transferase (IC50<10 μM).
Adaptation of the method to a 96-well format:
The procedure is similar to that above, except that the measurements are performed in a “Black Fluorotrack 200” 96-well device (Greiner, Poitiers, France) and the readings are performed using a “Spectrametrix Gemini” 96-well fluorimeter (Molecular Devices, Sunnyvale, Calif., USA)

[2] = target: T2, GGPT I (Bos taurus, UniProt P29702+Q5EAD5); assay: Inhibition of geranylgeranyl transferase protein I (3H-GGPP, RhoA-GST filter assay); assay type: biochemical; conditions: enzyme partially purified from bovine brain; 0.2 μM 3H-GGPP, 1 μM RhoA-GST, 45 minutes at 37° C.; read-out: IC50 (PGGTase)
T2 construct: GGPT I is partially purified from bovine brain by ion-exchange chromatography; from tissue; host or cells: bovine brain
Protocol: B) Evaluation of the Inhibition of Geranyl Geraryl Transferase Protein I:
55 mM TRIS/HCl pH 7.5; 5.5 mM DTT; 5.5 mM MgCl2; 110 μM ZnCl2, 0.22% N-octyl-B D-glucopyrannoside.
^3H-geranylgeranyl pyrophosphate (GGPP), 66 μM, 15 CI/mmol, (Isotopchim) Rho-GST recombinant protein
GGPT I is partially purified from bovine brain by ion-exchange chromatography on Q-sepharose (Pharmacia); elution at 0.23 and 0.4 M NaCl, respectively.
The reaction mixture containing 0.2 μM of ^3H-GGPP, 1 μM of RhoA-GST with or without (zero) 5 μl of GGPT/test, is prepared on ice.
In an Eppendorf tube, 45 μl of reaction mixture are mixed with 5 μl of 10× concentrated test product or of solvent, and incubated for 45 minutes at 37° C. A 45 μl aliquot is placed on a phosphocellulose P81 filter (Whatman, Maidstone, UK) numbered, washed with 50% ethanol, phosphoric acid (0.5%) and counted by scintillation.
The tests are performed in duplicate. The results are expressed as a percentage of inhibition.
Adaptation of the Method to a 96-well Format: […]
The tests are performed in triplicate. The results are expressed as a percentage of inhibition.

SMILES | IC50 [1] [nM] | IC50 [2] [nM]
CC(C)CNC(=S)N1CCN(c2ccc(N(Cc3cnc[nH]3)S(=O)(=O)c3ccccc3)cc2)CC1 [Example 45, 4-{4-[Benzenesulfonyl-(3H-imidazol-4-ylmethyl)amino]phenyl}-1-piperazinecarbothioic acid isobutylamide] | 6 | 
CCCNC(=O)N(Cc1cnc[nH]1)c1ccc(N2CCN(C(=O)c3ccc(Cl)s3)CC2)cc1 [Example 82, 1-{4-[4-(5-Chloro-2-thiophenecarbonyl)-1-piperazinyl]phenyl}-1-(3H-imidazol-4-ylmethyl)-3-propyl-urea] | 7 | 
N#Cc1ccc(Cn2cncc2CN(C(=O)c2ccccc2)c2ccc(N3CCN(C(=O)c4ccc(Cl)s4)CC3)cc2)cc1 [Example 108, N-{4-[4-(5-Chloro-2-thiophenecarbonyl)-1-piperazinyl]phenyl}N-[3-(4-cyanobenzyl)-3H-imidazol-4-ylmethyl]benzamide] | 2 | 
N#Cc1ccc(Cn2cncc2CN(C(=O)c2cccs2)c2ccc(N3CCN(C(=O)c4ccc(Cl)s4)CC3)cc2)cc1 [Example 109, Thiophene-2-carboxylic acid {4-[4-(5-chloro-2-thiophenecarbonyl)-1-piperazinyl]phenyl}[3-(4-cyanobenzyl)-3H-imidazol-4-ylmethyl]amide] | 1 | 700
N#Cc1ccc(Cn2cncc2CN(C(=O)c2ccccc2Cl)c2ccc(N3CCN(C(=O)c4ccc(Cl)s4)CC3)cc2)cc1 [Example 110, 2-Chloro-N-{4-[4-(5-chloro-2-thiophenecarbonyl)-1-piperazinyl]phenylk}-N-[3-(4-cyanobenzyl)-3H-imidazol-4-ylmethyl]benzamide] | 2 | 
N#Cc1ccc(Cn2cncc2CN(C(=O)c2ccccc2F)c2ccc(N3CCN(C(=O)c4ccc(Cl)s4)CC3)cc2)cc1 [Example 113, N-{4-[4-(5-Chloro-2-thiophenecarbonyl)-1-piperazinyl]phenyl}-N-[3-(4-cyanobenzyl)-3H-imidazol-4-ylmethyl]-2-fluorobenzamide] | 2 | 
N#Cc1ccc(Cn2cncc2CN(C(=O)c2cccc(F)c2)c2ccc(N3CCN(C(=O)c4ccc(Cl)s4)CC3)cc2)cc1 [Example 114, N-{4-[4-(5-Chloro-2-thiophenecarbonyl)-1-piperazinyl]phenyl}-N-[3-(4-cyanobenzyl)-3H-imidazol-4-ylmethyl]-3-fluorobenzamide] | 2 | 
N#Cc1ccc(Cn2cncc2CN(C(=O)c2ccc(C#N)cc2)c2ccc(N3CCN(C(=O)c4ccc(Cl)s4)CC3)cc2)cc1 [Example 123, N-{4-[4-(5-Chloro-2-thiophenecarbonyl)-1-piperazinyl]phenyl}-4-cyano-N-[3-(4-cyanobenzyl)-3H-imidazol-4-ylmethyl]-benzamide] | 2 | 
N#Cc1ccc(Cn2cncc2CN(C(=O)C2CCCCC2)c2ccc(N3CCN(C(=O)c4ccc(Cl)s4)CC3)cc2)cc1 [Example 124, Cyclohexanecarboxylic acid {4-[4-(5-chloro-2-thiophenecarbonyl)-1-piperazinyl]phenyl}-[3-(4-cyanobenzyl)-3H-imidazol-4-ylmethyl]amide] | 2 | 
N#Cc1ccc(Cn2cncc2CN(c2ccc(N3CCN(C(=O)c4ccc(Cl)s4)CC3)cc2)S(=O)(=O)c2ccccc2C#N)cc1 [Example 126, N-{4-[4-(5-Chloro-2-thiophenecarbonyl)-1-piperazinyl]phenyl}-2-cyano-N-[3-(4-cyanobenzyl)-3H-imidazol-4-ylmethyl]benzenesulfonamide] | 0.9 | 
CC(C)CNC(=S)N1CCC(c2ccc(N(Cc3cnc[nH]3)S(=O)(=O)c3ccccc3)cc2)CC1 [Example 141, 4-{4-[Benzenesulfonyl-(3H-imidazol-4-ylmethyl)amino]phenyl}piperidine-1-carbothioic acid isobutylamide] | 9 | 
